Here are results for 1 compound from patent publication US6642258B1, “Use of central cannabinoid receptor antagonist for preparing medicines” (Sanofi-Synthelabo, priority 1999, dated 2003).

Assay [1] concerns experimental allergic encephalitis (EAE) in SjL/j mice. Briefly: Experimental allergic encephalitis (EAE) induced in SjL/j mice by subcutaneous PLP (fragment 139-151) in FCA plus Bordetella pertussis. Format: in vivo. To be noted: administered orally or intraperitoneally from day zero of induction.
Assay [2] concerns experimental allergic encephalitis (EAE) in Lewis rats. Kind of assay: Experimental allergic encephalitis (EAE) induced in Lewis rats by intraplantar MBP (fragment 68-84) in FCA. Format: in vivo. The settings on record: administered orally or intraperitoneally from day zero of induction.

As for `Cc1c(C(=O)NN2CCCCC2)nn(-c2ccc(Cl)cc2Cl)c1-c1ccc(Cl)cc1` [compound A, N-Piperidino-5-(4-chlorophenyl)-1-(2,4-dichlorophenyl)-4-methylpyrazole-3-carboxamide], the “severity of the condition (paralysis of the hind quarters)” value in assay [1] and in assay [2] was “statistically smaller” in each case. Further, the “weight loss of the animals” value in assay [1] (compared with vehicle alone) and in assay [2] (compared with vehicle alone) was “significantly smaller” throughout.
